Source: patent publication US20240309015A1, “Methods for the Treatment of Fibrotic Disease” (SHY Therapeutics, LLC, priority 2021, published 2024)

Assays:
[1] = tested on: KRas G12D mutant; test: Ras GTP Binding Domain Inhibition Assay, KRas G12D mutant; details: at 20 μM; for KRas G12D mutant: % inh.: without SOS; for KRas G12D mutant + SOS: % inh.: with SOS
Protocol: (§1) A Ras Superfamily Activity Assay (as disclosed in International Application No. PCT/US2018/038613, filed Jun. 20, 2018, which is incorporated by reference in its entirety) was used as a specific assay to evaluate compounds against the following for the following Ras Superfamily proteins: KRas wild type, KRas Q61H mutant, KRas G12C mutant, KRas G12D mutant, Rac-1, and Rho-A.
(§2) Buffer-I: • 25 mM Tris-HCl, pH 7.4 • 27 mM KCl • 137 mM NaCl • 1 mM MgCl2 • 1 mM DTT
(§3) Buffer-IL: • 50 mM Tris-HCl, pH 7.0 • 1 mM MgCl2 • 1 mM DTT
(§4) The small GTPases proteins: KRas wild type. KRas Q61H mutant, KRas G12C mutant, KRas G12D mutants, Rac-1, and Rho-A were expressed as His-tagged proteins. In addition, the Guanosine nucleotide Exchange Factor (GEF) Sos protein (residues 556-1049) was expressed as a His-tagged protein. In cells, the guanine nucleotide exchange factor Sos protein promotes activation of Ras proteins by stimulating an exchange of GDP for GTP. The inclusion of Sos to the Ras GTP binding domain inhibition assay may be considered as an alternative representation of physiological cellular conditions for evaluating the inhibitory activity of some of the tested small molecules.
(§5) For the assay, all purified small GTPases proteins were diluted in Buffer-I or Buffer-II to a final concentration of 10-30 μg/mL. 200 μL of each diluted protein was added to a nickel-coated 96-well plate and incubated overnight at 4° C. Then the protein solution was discarded and 200 μL of Buffer-I or Buffer-II was added to each well in the presence of 1% DMSO. Compounds to be tested were added to the protein-coated wells at final concentration of 20 μM, and incubated for 3 hours at room temperature with and without 10-30 μg/mL of Sos added to the final hour of the incubation. When performing IC50 measurements a serial dilution of all tested concentrations was added. Then Cy3-GTP or Cy5-GTP was added to each well to a final concentration of 100 nM. The labeled GTP was incubated for 45 minutes at room temperature. Following GTP incubation, wells were washed 3× in Buffer-I or Buffer-II and 200 μL of Buffer-I or Buffer-II was added to each well. Following washes, the amount of bound labeled-GTP was measured using a SpectraMax M3 (Molecular Devices).

[2] = tested on: Rho-A; test: Ras GTP Binding Domain Inhibition Assay, Rho-A; details: at 20 μM; for Rho-A: % inh.: without SOS; for Rho-A + SOS: % inh.: with SOS
Protocol: as §1, §2, §3, §4, §5

[3] = tested on: KRas wild type; test: Ras GTP Binding Domain Inhibition Assay, KRas wild type; details: at 20 μM; for KRas wild type: % inh.: without SOS; for KRas wild type + SOS: % inh.: with SOS
Protocol: as §1, §2, §3, §4, §5

[4] = tested on: KRas G12C mutant; test: Ras GTP Binding Domain Inhibition Assay, KRas G12C mutant; details: at 20 μM; for KRas G12C mutant: % inh.: without SOS; for KRas G12C mutant + SOS: % inh.: with SOS
Protocol: as §1, §2, §3, §4, §5

Row | Structure (SMILES) | KRas G12D mutant: % inh. ([1]; Table 7) | KRas G12D mutant: % inh. ([1]; Table 8) | Rho-A: % inh. [2] | KRas wild type: % inh. [3] | KRas G12C mutant: % inh. [4] | KRas G12D mutant + SOS: % inh. ([1]; Table 7) | KRas G12D mutant + SOS: % inh. ([1]; Table 8) | Rho-A + SOS: % inh. [2] | KRas wild type + SOS: % inh. [3] | KRas G12C mutant + SOS: % inh. [4]
1 | COCCNc1nc(-c2nccn2C)nc2sc(-c3ccccc3)c(-c3ccccc3Cl)c12 [Compound 4, 5-(2-Chlorophenyl)-N-(2-methoxyethyl)-2-(1-methyl-1H-imidazol-2-yl)-6-phenylthieno[2,3-d]pyrimidin-4-amine] | B (B = 26-45% inhibition) | B (B = 26-45% inhibition) | B (B = 26-45% inhibition) | A (A = 1-25% inhibition) | B (B = 26-45% inhibition) |  |  |  |  | 
2 | COCCNc1nc(-c2cn(C)cn2)nc2sc(-c3cccc(OC)c3Cl)c(-c3ccc(OC)cc3)c12 [Compound 8, 6-(2-Chloro-3-methoxyphenyl)-N-(2-methoxyethyl)-5-(4-methoxyphenyl)-2-(1-methyl-1H-imidazol-4-yl)thieno[2,3-d]pyrimidin-4-amine] | B (B = 26-45% inhibition) | B (B = 26-45% inhibition) | C (C = 46-75% inhibition) | C (C = 46-75% inhibition) | B (B = 26-45% inhibition) | B (B = 26-45% inhibition) | B (B = 26-45% inhibition) | C (C = 46-75% inhibition) | D (D = 76-100% inhibition) | D (D = 76-100% inhibition)
3 | COCCn1ccnc1-c1nc(N[C@H]2C[C@@H](OC)C2)c2c(-c3ccccc3)c(-c3ccn(C)n3)sc2n1 [Compound 13, N-((1s,3s)-3-methoxycyclobutyl)-2-(1-(2-methoxyethyl)-1H-imidazol-2-yl)-6-(1-methyl-1H-pyrazol-3-yl)-5-phenylthieno[2,3-d]pyrimidin-4-amine] | C (C = 46-75% inhibition) | C (C = 46-75% inhibition) | D (D = 76-100% inhibition) | D (D = 76-100% inhibition) | D (D = 76-100% inhibition) | D (D = 76-100% inhibition) | D (D = 76-100% inhibition) | D (D = 76-100% inhibition) | D (D = 76-100% inhibition) | D (D = 76-100% inhibition)

The next lines start with the values.

Row | KRas G12D mutant: % inh. ([1]; Table 7) | KRas G12D mutant: % inh. ([1]; Table 8) | Rho-A: % inh. [2] | KRas wild type: % inh. [3] | KRas G12C mutant: % inh. [4] | KRas G12D mutant + SOS: % inh. ([1]; Table 7) | KRas G12D mutant + SOS: % inh. ([1]; Table 8) | Rho-A + SOS: % inh. [2] | KRas wild type + SOS: % inh. [3] | KRas G12C mutant + SOS: % inh. [4] | Structure (SMILES)
4 | B (B = 26-45% inhibition) | B (B = 26-45% inhibition) | 0 (0 = 0% inhibition) | 0 (0 = 0% inhibition) | B (B = 26-45% inhibition) | B (B = 26-45% inhibition) | B (B = 26-45% inhibition) | 0 (0 = 0% inhibition) | B (B = 26-45% inhibition) | C (C = 46-75% inhibition) | COC1CCN(c2nc(-c3nccn3C)nc3sc(-c4ccn(C)n4)c(-c4ccccc4)c23)CC1 [Compound 6, 4-(4-Methoxypiperidin-1-yl)-2-(1-methyl-1H-imidazol-2-yl)-6-(1-methyl-1H-pyrazol-3-yl)-5-phenylthieno[2,3-d]pyrimidine]
5 | C (C = 46-75% inhibition) | C (C = 46-75% inhibition) | B (B = 26-45% inhibition) | C (C = 46-75% inhibition) | C (C = 46-75% inhibition) | C (C = 46-75% inhibition) | C (C = 46-75% inhibition) | B (B = 26-45% inhibition) | D (D = 76-100% inhibition) | D (D = 76-100% inhibition) | CO[C@@H]1CC[C@H](Nc2nc(-c3nccn3C)nc3sc(-c4ccn(C(C)C)n4)c(-c4ccccc4)c23)C1 [Compound 11, 6-(1-Isopropyl-1H-pyrazol-3-yl)-N-((1S,3R)-3-methoxycyclopentyl)-2-(1-methyl-1H-imidazol-2-yl)-5-phenylthieno[2,3-d]pyrimidin-4-amine]
